# Literature values, collected in patent US20210023029A1, “EDASALONEXENT DOSING REGIMEN FOR TREATING MUSCULAR DYSTROPHY” (Catabasis Pharmaceuticals, Inc., priority 2017, published 2021).
# Test system: mdx mice
# Settings: long-term studies on mdx mice; cited from earlier work
smiles,measurement,value
CC/C=C\C/C=C\C/C=C\C/C=C\C/C=C\CCCC(=O)NCCNC(=O)c1ccccc1O [CAT-1041],"muscle function, skeletal muscle weight and muscle fibrosis","preserves muscle function, increases skeletal muscle weight, and reduces muscle fibrosis"
